Measurements reported in the supplement of paper PMC11451515.

Experiments:
Assay in all cases: AUC of viability dose-response curve (% viability x log10 dose units); higher = less sensitive
Details in all cases: 48 h
NOMO1 = system: NOMO1
Method in brief: (§1)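 Leukemia cells adapted to each medium were seeded in 1536-well plates (500 or 1000 cells/well) and given library compounds in DMSO for 48 h at 37°C. The 11 threefold doses spanned 47 μM to 0.79 nM, and CellTiter-Glo One luminescence was normalised per plate to DMSO and cell-free wells before four-parameter log-logistic fitting on log10 dose. Area under the curve was integrated with the trapezoidal rule, scaling curves above full viability and removing curves that failed quality control.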

SEM cells = system: SEM cells
Method in brief: as §1

P12-Ichikawa = system: P12-Ichikawa
Method in brief: as §1

[1] = RPMI 5 mM glucose + 10% dialyzed FBS

Row | SMILES | AUC of viability dose-response curve (NOMO1; HPLM + 10% dialyzed FBS) | AUC of viability dose-response curve (NOMO1; RPMI 5 mM glucose + 10% FBS) | AUC of viability dose-response curve (NOMO1; [1]) | AUC of viability dose-response curve (SEM cells; HPLM + 10% dialyzed FBS) | AUC of viability dose-response curve (SEM cells; RPMI 5 mM glucose + 10% FBS) | AUC of viability dose-response curve (SEM cells; [1]) | AUC of viability dose-response curve (P12-Ichikawa; HPLM + 10% dialyzed FBS) | AUC of viability dose-response curve (P12-Ichikawa; RPMI 5 mM glucose + 10% FBS) | AUC of viability dose-response curve (P12-Ichikawa; [1])
1 | Clc1ccc(CCC(Cn2ccnc2)Sc2c(Cl)cccc2Cl)cc1 (centres undefined) | 449 | 402 | 432 | 366 | 422 | 408 | 450 | 444 | 404
2 | COc1cccc(N(C)C(=S)Oc2ccc3c(c2)CCCC3)n1 | 465 | 441 | 444 | 389 | 445 | 452 | 469 | 470 | 455
3 | N#Cc1cc(NC(=O)Nc2nnc(-c3ccncc3)s2)ccc1-c1cn[nH]c1 | 473 | 476 | 461 | 451 | 462 | 467 | 463 | 452 | 465
4 | CC(C)[C@H](O)C(=O)N[C@@H](C)C(=O)N[C@@H]1C(=O)N(C)CCc2ccccc21 | 444 | 472 | 460 | 431 | 441 | 393 | 447 | 450 | 423
5 | CC(C)(Sc1cc(C(C)(C)C)c(O)c(C(C)(C)C)c1)Sc1cc(C(C)(C)C)c(O)c(C(C)(C)C)c1 | 449 | 428 | 436 | 385 | 415 | 409 | 445 | 414 | 405
6 | O=C(Nc1ccccc1)Nc1ccc(-c2ccc(C(=O)[C@@H]3CCC[C@H]3C(=O)O)cc2)cc1 | 406 | 441 | 409 | 476 | 467 | 468 | 444 | 444 | 443
7 | NC(=O)N1CCC(CC(=O)N2CCC([C@H]3c4ncc(Br)cc4CCc4cc(Cl)cc(Br)c43)CC2)CC1 | 442 | 439 | 432 | 363 | 355 | 395 | 413 | 395 | 410
8 | CNC(=O)c1nn(C)c2c1C(C)(C)Cc1cnc(Nc3ccc(N4CCN(C)CC4)cc3)nc1-2 | 371 | 400 | 386 | 269 | 265 | 275 | 404 | 384 | 376
9 | O=c1oc2cc(O)ccc2s1 | 439 | 448 | 467 | 462 | 447 | 453 | 466 | 446 | 454
10 | CCC(=O)N1CCN(CC1)C2=C(C=C(C=C2)N3C(=O)\C=C/C4=C3C5=CC(=CC=C5N=C4)C6=CN=C7C=CC=CC7=C6)C(F)(F)F | 376 | 388 | 352 | 286 | 297 | 300 | 406 | 328 | 347
11 | CCCCCN(C)CCC(O)(P(=O)([O-])O)P(=O)(O)O | 421 | 439 | 423 | 357 | 384 | 367 | 447 | 426 | 409
12 | CC[C@H](C)C(=O)O[C@H]1C[C@@H](C)\C=C2\C=C/[C@H](C)[C@H](CC[C@@H]3C[C@@H](O)CC(=O)O3)[C@@H]12 | 437 | 411 | 411 | 384 | 386 | 408 | 415 | 373 | 379
13 | CC(C)(C)NCC(O)c1ccc(O)c(CO)c1 (centres undefined) | 388 | 420 | 399 | 474 | 461 | 470 | 438 | 431 | 442
14 | OC[C@H]1OC(O)C[C@@H](O)[C@@H]1O (some centres undefined) | 463 | 466 | 466 | 439 | 441 | 447 | 463 | 470 | 475
15 | c1coc(CNc2ncnc3nc[nH]c23)c1 | 455 | 461 | 445 | 460 | 469 | 473 | 437 | 464 | 467
16 | Clc1ccc(C(c2ccc(Cl)cc2)[n+]2ccn(CC(OCc3ccc(Cl)cc3Cl)c3ccc(Cl)cc3Cl)c2)cc1 (centres undefined) | 441 | 441 | 440 | 432 | 415 | 440 | 438 | 432 | 444
17 | OC1=C(Cl)C=C(N\C2=C(\C(=O)NC2=O)C3=C(C=CC=C3)[N+]([O-])=O)C=C1 | 400 | 431 | 427 | 419 | 426 | 434 | 457 | 456 | 459
18 | COc1cc(C[C@@H](CO)[C@H](CO)Cc2ccc(O)c(OC)c2)ccc1O | 467 | 456 | 476 | 452 | 444 | 455 | 464 | 457 | 439
19 | CCOc1cc(C(=O)Nc2ccc(Cl)c(-c3nc4ccccc4[nH]3)c2)cc(OCC)c1OCC | 475 | 410 | 431 | 378 | 392 | 371 | 431 | 418 | 387
20 | NC(=O)c1nnn(Cc2cc(Cl)c(C(=O)c3ccc(Cl)cc3)c(Cl)c2)c1N | 465 | 455 | 470 | 471 | 462 | 464 | 463 | 465 | 464
21 | Nc1nccc(-c2ccc3noc(-c4ccc(Cl)cc4)c3c2)n1 | 449 | 464 | 469 | 425 | 457 | 462 | 468 | 466 | 470
22 | CN(C)C(=O)[C@H](O)[C@H](Cc1ccccc1)NC(=O)c1cc2cc(Cl)ccc2[nH]1 | 418 | 456 | 435 | 359 | 340 | 359 | 448 | 442 | 456
23 | CN1CCC(CNc2ccc3ncc(-c4cccc(OC(F)(F)F)c4)n3n2)CC1 | 429 | 399 | 425 | 329 | 334 | 340 | 449 | 435 | 420

Row | SMILES | AUC of viability dose-response curve (NOMO1; HPLM + 10% dialyzed FBS) | AUC of viability dose-response curve (NOMO1; RPMI 5 mM glucose + 10% FBS) | AUC of viability dose-response curve (NOMO1; [1]) | AUC of viability dose-response curve (SEM cells; HPLM + 10% dialyzed FBS) | AUC of viability dose-response curve (SEM cells; RPMI 5 mM glucose + 10% FBS) | AUC of viability dose-response curve (SEM cells; [1]) | AUC of viability dose-response curve (P12-Ichikawa; HPLM + 10% dialyzed FBS) | AUC of viability dose-response curve (P12-Ichikawa; RPMI 5 mM glucose + 10% FBS) | AUC of viability dose-response curve (P12-Ichikawa; [1])
24 | C#CCC(Cc1cnc2nc(N)nc(N)c2n1)c1ccc(C(=O)N[C@@H](CCC(=O)O)C(=O)O)cc1 (some centres undefined) | 307 | 380 | 265 | 274 | 358 | 232 | 227 | 250 | 228
25 | Cc1noc(N[S+](=O)([O-])c2ccc(N)cc2)c1C | 464 | 457 | 426 | 448 | 457 | 456 | 460 | 468 | 463
26 | CC1(C)CCC(C)(C)c2cc(NC(=O)c3ccc(C(=O)O)cc3)ccc21 | 455 | 445 | 435 | 464 | 465 | 451 | 463 | 470 | 469
27 | COC(=O)[C@H](Cc1ccccc1)NC(=O)[C@@H](N)CC(=O)O | 453 | 461 | 437 | 476 | 472 | 467 | 454 | 459 | 458
28 | COc1cc2c(cc1OC)CN(CCc1ccc(NC(=O)c3cccc4c(=O)c5cccc(OC)c5[nH]c34)cc1)CC2 | 348 | 391 | 395 | 380 | 276 | 320 | 326 | 372 | 366
29 | CCc1nc(N)nc(N)c1-c1ccc(Cl)cc1 | 381 | 421 | 427 | 381 | 392 | 399 | 352 | 427 | 389
30 | CC1(C)[C@@H](O)CC[C@@]2(C)[C@H]1CC[C@]3(C)[C@@H]2C(=O)\C=C/4[C@@H]5C[C@](C)(CC[C@]5(C)CC[C@@]34C)C(O)=O | 465 | 448 | 460 | 468 | 470 | 477 | 464 | 468 | 461
31 | CN(C)CCc1c[nH]c2ccc(Cn3cncn3)cc12 | 318 | 277 | 311 | 267 | 226 | 257 | 329 | 312 | 286
32 | COc1cccc(OC)c1-c1cc(C(=O)NC2(C(=O)O)C3CC4CC(C3)CC2C4)nn1-c1ccnc2cc(Cl)ccc12 (centres undefined) | 447 | 473 | 455 | 467 | 467 | 461 | 456 | 472 | 454
33 | OC1CCC(CC1)N2\C=N/C3=C(C2=N)C(=C([N]3CC4=CC=CC=C4)C5=CC=CC=C5)C6=CC=CC=C6 (centres undefined) | 399 | 402 | 403 | 329 | 323 | 353 | 437 | 395 | 408
34 | C=C1CCC2[C@](C)(CO)C(O)CC[C@]2(C)C1C/C=C1/C(=O)OCC1O (some centres undefined) | 395 | 459 | 453 | 439 | 383 | 420 | 454 | 457 | 448
35 | Cc1cccc(-c2[nH]c(C(C)(C)C)nc2-c2ccc3nccnc3c2)n1 | 460 | 430 | 455 | 444 | 383 | 443 | 459 | 458 | 424
36 | CCN(CC)CCCC(C)Nc1ccnc2cc(Cl)ccc12 (centres undefined) | 382 | 416 | 416 | 477 | 468 | 468 | 416 | 416 | 418
37 | CC(O)(C[S+](=O)([O-])c1ccc(F)cc1)C(=O)Nc1ccc(C#N)c(C(F)(F)F)c1 (centres undefined) | 439 | 422 | 436 | 428 | 426 | 424 | 450 | 430 | 413
38 | COC(=O)CCC1=C(C)C2=CC3=NC(=CC4=C(C)C(=C([NH]4)C=C\5N=C(C=C1[NH]2)\C(=C5C)CCC(O)=O)C=C)\C6=C\C=C(/[C@@H](C(=O)OC)[C@@]36C)C(=O)OC | 393 | 433 | 397 | 428 | 441 | 473 | 469 | 450 | 457
39 | COc1ccc(/C=C/C(=O)Nc2ccccc2C(=O)O)cc1OC | 434 | 455 | 463 | 446 | 438 | 448 | 453 | 458 | 450
40 | COc1ccc(-n2c(C)c([N+](=O)[O-])c3ccc(O)cc32)cc1 | 452 | 476 | 446 | 469 | 453 | 468 | 446 | 465 | 464
41 | Cc1nnc(C(C)C)n1[C@@H]1C[C@H]2CC[C@@H](C1)N2CC[C@H](NC(=O)C1CCC(F)(F)CC1)c1ccccc1 | 445 | 411 | 394 | 425 | 379 | 419 | 460 | 454 | 437
42 | CC(C)[C@H](C(=O)Nc1ccc(C(=O)NO)cc1)c1ccccc1 | 361 | 368 | 364 | 340 | 346 | 342 | 351 | 346 | 350
43 | COCC(=O)NC/C=C/c1ccc2ncnc(Nc3ccc(Oc4ccc(C)nc4)c(C)c3)c2c1 | 329 | 372 | 384 | 430 | 460 | 412 | 464 | 437 | 436
44 | O=C(O)c1cccc(-c2noc(-c3ccccc3F)n2)c1 | 456 | 451 | 465 | 454 | 457 | 472 | 470 | 465 | 465
45 | Cc1nnc(C(=O)NC(C)(C)c2nc(C(=O)NCc3ccc(F)cc3)c(O)c(=O)n2C)o1 | 428 | 449 | 470 | 473 | 449 | 465 | 448 | 454 | 465
46 | CCN1\C=C(C(O)=O)/C(=O)C2=C1C(=C(N3CCNC(C)C3)C(=C2)F)F (centres undefined) | 458 | 471 | 452 | 467 | 471 | 469 | 462 | 457 | 461
